# According to US6852673B2, “Herbicidal pyridine compounds” (BASF Aktiengesellschaft, priority 1998, dated 2005):
# Key:
# Type in all cases: in vivo
# Hordeum vulgare (HORVW) [1] = experiment: Pre-emergence herbicidal evaluation, winter barley
# How it was run: (§1)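 Soil-surface spray of sown pots, about 0.0125 to 0.4 kg/ha, aqueous acetone carrier. Scored visually on a rating scale 2 to 4 weeks post-treatment.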
# Oryza sativum (ORYSA) [2] = experiment: Pre-emergence herbicidal evaluation, rice
# How it was run: as §1
# [3] = test system: Triticum aestivum (TRZAW); experiment: Pre-emergence herbicidal evaluation, winter wheat
# How it was run: as §1
# [4] = test system: Abutilon theophrasti (ABUTH); experiment: Pre-emergence herbicidal evaluation, velvetleaf
# How it was run: as §1
# [5] = test system: Ambrosia artemiisifolia (AMBEL); experiment: Pre-emergence herbicidal evaluation, ragweed
# How it was run: as §1
# Galium aparine (GALAP) [6] = experiment: Pre-emergence herbicidal evaluation, cleaver
# How it was run: as §1
# [7] = test system: Ipomoea hederacea (IPOHE); experiment: Pre-emergence herbicidal evaluation, morning glory
# How it was run: as §1
# Lamium purpureum (LAMPU) = experiment: Pre-emergence herbicidal evaluation, purple deadnettle
# How it was run: as §1
# [8] = test system: Matricaria inodora (MATIN); experiment: Pre-emergence herbicidal evaluation, mayweed
# How it was run: as §1
# Stellaria media (STEME) = experiment: Pre-emergence herbicidal evaluation, chickweed
# How it was run: as §1
# [9] = test system: Alopecurus myosuroides (ALOMY); experiment: Pre-emergence herbicidal evaluation, black grass
# How it was run: as §1
# [10] = test system: Echinochloa grus galli (ECHCG); experiment: Pre-emergence herbicidal evaluation, barnyard grass
# How it was run: as §1
# Setaria viridis (SETVI) [11] = experiment: Pre-emergence herbicidal evaluation, green foxtail
# How it was run: as §1
# Glycine max (GLXMA) = experiment: Post-emergence herbicidal evaluation, soyabeans; conditions: rated 2 to 4 weeks after treatment
# How it was run: (§2)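 Post-emergence spray of test compound, from acetone solutions diluted in water, at about 0.03 to 0.4 kg/ha per pot, plants then kept under standard greenhouse conditions. Injury rated 2 to 4 weeks after treatment on a 0 (as untreated) to 9 (death) scale.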
# Hordeum vulgare (HORVW) [12] = experiment: Post-emergence herbicidal evaluation, winter barley; conditions: rated 2 to 4 weeks after treatment
# How it was run: as §2
# Oryza sativum (ORYSA) [13] = experiment: Post-emergence herbicidal evaluation, rice; conditions: rated 2 to 4 weeks after treatment
# How it was run: as §2
# [14] = test system: Triticum aestivum (TRZAW); experiment: Post-emergence herbicidal evaluation, winter wheat; conditions: rated 2 to 4 weeks after treatment
# How it was run: as §2
# Zea mays (ZEAMX) = experiment: Post-emergence herbicidal evaluation, maize; conditions: rated 2 to 4 weeks after treatment
# How it was run: as §2
# [15] = test system: Abutilon theophrasti (ABUTH); experiment: Post-emergence herbicidal evaluation, velvetleaf; conditions: rated 2 to 4 weeks after treatment
# How it was run: as §2
# [16] = test system: Ambrosia artemiisifolia (AMBEL); experiment: Post-emergence herbicidal evaluation, ragweed; conditions: rated 2 to 4 weeks after treatment
# How it was run: as §2
# Galium aparine (GALAP) [17] = experiment: Post-emergence herbicidal evaluation, cleaver; conditions: rated 2 to 4 weeks after treatment
# How it was run: as §2
# [18] = test system: Ipomoea hederacea (IPOHE); experiment: Post-emergence herbicidal evaluation, morning glory; conditions: rated 2 to 4 weeks after treatment
# How it was run: as §2
# [19] = test system: Matricaria inodora (MATIN); experiment: Post-emergence herbicidal evaluation, mayweed; conditions: rated 2 to 4 weeks after treatment
# How it was run: as §2
# [20] = test system: Alopecurus myosuroides (ALOMY); experiment: Post-emergence herbicidal evaluation, black grass; conditions: rated 2 to 4 weeks after treatment
# How it was run: as §2
# [21] = test system: Echinochloa grus galli (ECHCG); experiment: Post-emergence herbicidal evaluation, barnyard grass; conditions: rated 2 to 4 weeks after treatment
# How it was run: as §2
# Setaria viridis (SETVI) [22] = experiment: Post-emergence herbicidal evaluation, green foxtail; conditions: rated 2 to 4 weeks after treatment
# How it was run: as §2
structure (smiles),measurement,setting,value
Cc1cc(OCC=C(Cl)Cl)nc(Oc2cc(C(F)(F)F)nn2C)c1 [Example 12],HORVW rating,Hordeum vulgare (HORVW) [1]; dose 0.013 kg/ha,3 (3 - Moderate effect)
same,HORVW rating,Hordeum vulgare (HORVW) [1]; dose 0.025 kg/ha,4 (4 - Injury)
same,HORVW rating,Hordeum vulgare (HORVW) [1]; dose 0.1 kg/ha,5 (5 - Definite injury)
same,HORVW rating,Hordeum vulgare (HORVW) [1]; dose 0.4 kg/ha,8 (8 - Approaching complete kill)
same,ORYSA rating,Oryza sativum (ORYSA) [2]; dose 0.013 kg/ha,0 (0 - No effect)
same,ORYSA rating,Oryza sativum (ORYSA) [2]; dose 0.025 kg/ha,0 (0 - No effect)
same,ORYSA rating,Oryza sativum (ORYSA) [2]; dose 0.1 kg/ha,1 (1 - Trace effect)
same,ORYSA rating,Oryza sativum (ORYSA) [2]; dose 0.4 kg/ha,3 (3 - Moderate effect)
same,TRZAW rating,[3]; dose 0.013 kg/ha,1 (1 - Trace effect)
same,TRZAW rating,[3]; dose 0.025 kg/ha,2 (2 - Slight effect)
same,TRZAW rating,[3]; dose 0.1 kg/ha,3 (3 - Moderate effect)
same,TRZAW rating,[3]; dose 0.4 kg/ha,6 (6 - Herbicidal effect)
same,ABUTH rating,[4]; dose 0.013 kg/ha,2 (2 - Slight effect)
same,ABUTH rating,[4]; dose 0.025 kg/ha,7 (7 - Good herbicidal effect)
same,ABUTH rating,[4]; dose 0.1 kg/ha,8 (8 - Approaching complete kill)
same,ABUTH rating,[4]; dose 0.4 kg/ha,9 (9 - Complete kill)
same,AMBEL rating,[5]; dose 0.013 kg/ha,8 (8 - Approaching complete kill)
same,AMBEL rating,[5]; dose 0.025 kg/ha,8 (8 - Approaching complete kill)
same,AMBEL rating,[5]; dose 0.1 kg/ha,9 (9 - Complete kill)
same,AMBEL rating,[5]; dose 0.4 kg/ha,9 (9 - Complete kill)
same,GALAP rating,Galium aparine (GALAP) [6]; dose 0.013 kg/ha,1 (1 - Trace effect)
same,GALAP rating,Galium aparine (GALAP) [6]; dose 0.025 kg/ha,4 (4 - Injury)
same,GALAP rating,Galium aparine (GALAP) [6]; dose 0.1 kg/ha,8 (8 - Approaching complete kill)
same,GALAP rating,Galium aparine (GALAP) [6]; dose 0.4 kg/ha,9 (9 - Complete kill)
same,IPOHE rating,[7]; dose 0.013 kg/ha,2 (2 - Slight effect)
same,IPOHE rating,[7]; dose 0.025 kg/ha,3 (3 - Moderate effect)
same,IPOHE rating,[7]; dose 0.1 kg/ha,9 (9 - Complete kill)
same,IPOHE rating,[7]; dose 0.4 kg/ha,9 (9 - Complete kill)
same,LAMPU rating,Lamium purpureum (LAMPU); dose 0.013 kg/ha,8 (8 - Approaching complete kill)
same,LAMPU rating,Lamium purpureum (LAMPU); dose 0.025 kg/ha,9 (9 - Complete kill)
same,LAMPU rating,Lamium purpureum (LAMPU); dose 0.1 kg/ha,9 (9 - Complete kill)
same,LAMPU rating,Lamium purpureum (LAMPU); dose 0.4 kg/ha,9 (9 - Complete kill)
same,MATIN rating,[8]; dose 0.013 kg/ha,8 (8 - Approaching complete kill)
same,MATIN rating,[8]; dose 0.025 kg/ha,9 (9 - Complete kill)
same,MATIN rating,[8]; dose 0.1 kg/ha,9 (9 - Complete kill)
same,MATIN rating,[8]; dose 0.4 kg/ha,9 (9 - Complete kill)
same,STEME rating,Stellaria media (STEME); dose 0.013 kg/ha,6 (6 - Herbicidal effect)
same,STEME rating,Stellaria media (STEME); dose 0.025 kg/ha,8 (8 - Approaching complete kill)
same,STEME rating,Stellaria media (STEME); dose 0.1 kg/ha,9 (9 - Complete kill)
same,STEME rating,Stellaria media (STEME); dose 0.4 kg/ha,9 (9 - Complete kill)
same,ALOMY rating,[9]; dose 0.013 kg/ha,3 (3 - Moderate effect)
same,ALOMY rating,[9]; dose 0.025 kg/ha,8 (8 - Approaching complete kill)
same,ALOMY rating,[9]; dose 0.1 kg/ha,9 (9 - Complete kill)
same,ALOMY rating,[9]; dose 0.4 kg/ha,9 (9 - Complete kill)
same,ECHCG rating,[10]; dose 0.013 kg/ha,3 (3 - Moderate effect)
same,ECHCG rating,[10]; dose 0.025 kg/ha,5 (5 - Definite injury)
same,ECHCG rating,[10]; dose 0.1 kg/ha,8 (8 - Approaching complete kill)
same,ECHCG rating,[10]; dose 0.4 kg/ha,9 (9 - Complete kill)
same,SETVI rating,Setaria viridis (SETVI) [11]; dose 0.013 kg/ha,5 (5 - Definite injury)
same,SETVI rating,Setaria viridis (SETVI) [11]; dose 0.025 kg/ha,9 (9 - Complete kill)
same,SETVI rating,Setaria viridis (SETVI) [11]; dose 0.1 kg/ha,9 (9 - Complete kill)
same,SETVI rating,Setaria viridis (SETVI) [11]; dose 0.4 kg/ha,9 (9 - Complete kill)
same,GLXMA rating,Glycine max (GLXMA); dose 0.03 kg/ha,5 (5 - Definite injury)
same,GLXMA rating,Glycine max (GLXMA); dose 0.1 kg/ha,8 (8 - Approaching complete kill)
same,GLXMA rating,Glycine max (GLXMA); dose 0.4 kg/ha,8 (8 - Approaching complete kill)
same,HORVW rating,Hordeum vulgare (HORVW) [12]; dose 0.03 kg/ha,3 (3 - Moderate effect)
same,HORVW rating,Hordeum vulgare (HORVW) [12]; dose 0.1 kg/ha,5 (5 - Definite injury)
same,HORVW rating,Hordeum vulgare (HORVW) [12]; dose 0.4 kg/ha,6 (6 - Herbicidal effect)
same,ORYSA rating,Oryza sativum (ORYSA) [13]; dose 0.03 kg/ha,2 (2 - Slight effect)
same,ORYSA rating,Oryza sativum (ORYSA) [13]; dose 0.1 kg/ha,3 (3 - Moderate effect)
same,ORYSA rating,Oryza sativum (ORYSA) [13]; dose 0.4 kg/ha,4 (4 - Injury)
same,TRZAW rating,[14]; dose 0.03 kg/ha,3 (3 - Moderate effect)
same,TRZAW rating,[14]; dose 0.1 kg/ha,3 (3 - Moderate effect)
same,TRZAW rating,[14]; dose 0.4 kg/ha,5 (5 - Definite injury)
same,ZEAMX rating,Zea mays (ZEAMX); dose 0.03 kg/ha,2 (2 - Slight effect)
same,ZEAMX rating,Zea mays (ZEAMX); dose 0.1 kg/ha,4 (4 - Injury)
same,ZEAMX rating,Zea mays (ZEAMX); dose 0.4 kg/ha,6 (6 - Herbicidal effect)
same,ABUTH rating,[15]; dose 0.03 kg/ha,8 (8 - Approaching complete kill)
same,ABUTH rating,[15]; dose 0.1 kg/ha,9 (9 - Complete kill)
same,ABUTH rating,[15]; dose 0.4 kg/ha,9 (9 - Complete kill)
same,AMBEL rating,[16]; dose 0.03 kg/ha,5 (5 - Definite injury)
same,AMBEL rating,[16]; dose 0.1 kg/ha,6 (6 - Herbicidal effect)
same,AMBEL rating,[16]; dose 0.4 kg/ha,7 (7 - Good herbicidal effect)
same,GALAP rating,Galium aparine (GALAP) [17]; dose 0.03 kg/ha,7 (7 - Good herbicidal effect)
same,GALAP rating,Galium aparine (GALAP) [17]; dose 0.1 kg/ha,8 (8 - Approaching complete kill)
same,GALAP rating,Galium aparine (GALAP) [17]; dose 0.4 kg/ha,9 (9 - Complete kill)
same,IPOHE rating,[18]; dose 0.03 kg/ha,9 (9 - Complete kill)
same,IPOHE rating,[18]; dose 0.1 kg/ha,9 (9 - Complete kill)
same,IPOHE rating,[18]; dose 0.4 kg/ha,9 (9 - Complete kill)
same,MATIN rating,[19]; dose 0.03 kg/ha,8 (8 - Approaching complete kill)
same,MATIN rating,[19]; dose 0.1 kg/ha,8 (8 - Approaching complete kill)
same,MATIN rating,[19]; dose 0.4 kg/ha,8 (8 - Approaching complete kill)
same,ALOMY rating,[20]; dose 0.03 kg/ha,8 (8 - Approaching complete kill)
same,ALOMY rating,[20]; dose 0.1 kg/ha,9 (9 - Complete kill)
same,ALOMY rating,[20]; dose 0.4 kg/ha,9 (9 - Complete kill)
same,ECHCG rating,[21]; dose 0.03 kg/ha,9 (9 - Complete kill)
same,ECHCG rating,[21]; dose 0.1 kg/ha,9 (9 - Complete kill)
same,ECHCG rating,[21]; dose 0.4 kg/ha,9 (9 - Complete kill)
same,SETVI rating,Setaria viridis (SETVI) [22]; dose 0.03 kg/ha,9 (9 - Complete kill)
same,SETVI rating,Setaria viridis (SETVI) [22]; dose 0.1 kg/ha,9 (9 - Complete kill)
same,SETVI rating,Setaria viridis (SETVI) [22]; dose 0.4 kg/ha,9 (9 - Complete kill)
